{
  "source": "patent US20250009743A1",
  "about": "“METHODS OF TREATING CANCERS USING STING AGONISTS” (Dana-Farber Cancer Institute, Inc., priority 2021, published 2025)",
  "key": {"[1]": {"test_system": "ID8-Brca1^−/− tumor cells in WT and STING^−/− mice", "assay": "Macrophages and myeloid DCs in WT and STING^−/− mice injected with ID8-Brca1^−/− tumor cells", "format": "in vivo, mouse", "settings": "24 h treatment; FIG. 21K, FIG. 22D", "description": "(§1) Tumors were chopped and digested in collagenase buffer as described previously (Ding et al., 2018 Cell Rep 25, 2972-2980.e2975). Single cell suspensions of tumor and ascites were obtained by filtering through 70 um strainers and treated with 1× eBioscience RBC lysis buffer (Thermo Fisher) before staining. Single cells suspensions were incubated with LIVE/DEAD Fixable Aqua Dead Cell Stain (Life Technologies, Cat #L34965) for 30 min and then blocked with anti-CD16/32 (Biolegend, clone 93) for 20 min on ice. Samples were then incubated with appropriate antibodies for 30 min on ice. Foxp3 staining buffer set (eBioscience, Cat #00-5523-00) was applied for intracellular markers staining. For the intracellular cytokine analysis, cells were stimulated with Leukocyte Activation Cocktail (BD Biosciences, Cat #550583) at 37° C. for 4-6 hours prior to FACS staining. […] Flow cytometry was performed on an LSRII (BD Biosciences) or Fortessa HTS (BD Biosciences) at DFCI Flow Cytometry Core, and all the data were analyzed using FlowJo software."}, "[2]": {"test_system": "DF101 PDX", "assay": "DF101 ovarian PDX in NSG mice", "format": "in vivo, human", "text": "For the PDX in vivo experiments, about 3×10^6 PDX tumor cells were mixed with 3×10^6 human bone marrow mononuclear cells in serum-free DMEM/F12 medium containing 50% Matrigel (CAT #70001, […] Technology) and intraperitoneally transplanted into NOD/SCID IL2Rgnull mice (NSG, The Jackson Laboratory). About three weeks after injection, PDX-bearing mice were equivalently divided into 4 groups according to the luminescent intensity and treated with vehicle control, olaparib, MSA-2 and olaparib in combination with MSA-2 using the same dosing and schedule that have been described above. Ascites was harvested for analysis after three weeks' treatment.\nas §1"}, "[3]": {"test_system": "PE tumors", "assay": "Flow cytometry of immune cells in PE tumors and tumor-drainage lymph nodes", "format": "in vivo, mouse", "settings": "single-agent treatment; FIG. 30B", "description": "To obtain single-cell suspension from tumor mass, tumors were excised, minced and dissociated in collagenase buffer (DMEM supplemented with 5% FBS, 10 mM HEPES [Gibco), 100 μg/mL penicillin-streptomycin, 20 μg/mL DNase I [StemCell] and 1× collagenase/hyaluronidase [StemCell]) at 37° C. for 45 min. Tumor-draining lymph nodes were isolated from tumor-bearing mice and were mashed through 70 μm strainer using plunger of a syringe to obtain single-cell suspension.\nFor FACS staining, tissue cells were first stained with LIVE/DEAD Fixable Aqua Dead Cell Stain (Thermo Fisher) for 30 min on ice, followed by blocking with anti-CD16/32 (BioLegend) for 20 minutes on ice. Afterwards, cells were incubated with antibodies targeting surface biomarkers in FACS buffer for 30 minutes on ice."}, "[4]": {"test_system": "PBM-R tumor cells", "assay": "γ-H2AX flow cytometry in PBM-R cells", "format": "cell-based, mouse", "settings": "1 μM olaparib 24 hours", "description": "Analysis of p-STAT3 and γ-H2AX (p-HA2X-Ser139) was performed according to a two-step protocol for intracellular phosphorylated signaling proteins (Thermo Fisher). Briefly, cells were incubated with LIVE/DEAD Fixable Aqua Dead Cell Stain for 30 min. After washing, cells were suspended in 100 μl PBS and then fixed by adding an equal volume of IC Fixation Buffer (CAT #00-822-49, Thermo Fisher) directly to cells and incubated at room temperature for 20 min followed by fixing with ice-cold 90% methanol in PBS for 30 min. The fixed cells were blocked and stained with p-STAT3 or γ-H2AX antibodies for flow cytometry analysis as described above."}, "[5]": {"test_system": "ovarian PDXs DF86, DF101, DF118 and DF149", "assay": "p-STAT3 (Y705) in PARPi-resistant ovarian PDX cells", "format": "cell-based, human", "settings": "5 μM olaparib for 24 hours; FIG. 25B", "text": "UWB1.289 and UWB1.289+BRCA1 were purchased from ATCC and cultured in epithelial complete growth medium (50% ATCC-formulated RPMI-1640 medium, 50% MEGM medium and 3% fetal bovine serum) as described previously (Ding et al., 2018, Cell Rep 25, 2972-2980.e2975). ID8-Brca^+/+ and ID8-Brca^−/− cells were previously generated by CRISPR-Cas9 technology. The ovarian cancer patient-derived tumor xenografts (PDX) were established at Dana-Farber Cancer Institute by intraperitoneally implanting tumor cells that isolated from patients' ascites into irradiated nude mice (Liu et al., 2017; Clinical cancer research: an official journal of the American Association for Cancer Research 23, 1263-1273). The established PDX models were maintained by intraperitoneally transplantation in NOD/SCID IL2Rgnull mice (NSG, The Jackson Laboratory). The ovarian PDX cells could be cultured in the epithelial complete growth medium for about 3 to 4 days for in vitro experiments.\nAnalysis of p-STAT3 and γ-H2AX (p-HA2X-Ser139) was performed according to a two-step protocol for intracellular phosphorylated signaling proteins (Thermo Fisher). Briefly, cells were incubated with LIVE/DEAD Fixable Aqua Dead Cell Stain for 30 min. […]"}},
  "data": [
    {"smiles": "COc1cc2cc(C(=O)CCC(=O)O)sc2cc1OC", "note": "[MSA-2]", "values": [
      {"measurement": "myeloid DC activation and TAM repolarization in WT mice", "setting": "[1]", "result": "successfully activated myeloid DCs and repolarized M2-like TAM to M1-like status"},
      {"measurement": "tumor response compared to DF86 PDX tumors", "setting": "[2]; FIG. 26", "result": "less responsive"},
      {"measurement": "TAM phenotype in ascites", "setting": "[2]; FIG. 26C-E", "result": "reprogramed M2-like TAMs to M1-like"},
      {"measurement": "proportion of TAMs in ascites", "setting": "[2]; FIG. 26C-E", "result": "greatly decreased"},
      {"measurement": "tumor immune microenvironment of large PE tumors", "setting": "[3]", "result": "did not significantly affect"}
    ]},
    {"smiles": "O=C(c1cc(Cc2n[nH]c(=O)c3ccccc23)ccc1F)N1CCN(C(=O)C2CC2)CC1", "note": "[olaparib]", "values": [
      {"measurement": "DNA damage (γ-H2AX)", "setting": "[4]; PBM-R3 cells", "result": "a little DNA damage signaling"},
      {"measurement": "DNA damage (γ-H2AX)", "setting": "[4]; PBM-R tumor cells", "result": "significantly increased DNA damage"},
      {"measurement": "PDX cells with increased phosphorylation level STAT3", "setting": "[5]", "result": "3 out of 4"}
    ]}
  ]
}
